Laboratory results published in ChEMBL document CHEMBL4130430, “Efficacy of a series of alpha-pyrone derivatives against Leishmania (L.) infantum and Trypanosoma cruzi” (Eur J Med Chem, 2017).
The source made the active and inactive calls. The rule behind the calls is not given here.

Experiments:
[1] = system: Leishmania infantum; test: Antileishmanial activity against Leishmania infantum MHOM/BR/1972/LD amastigotes infected in BALB/c mouse peritoneal macrophages assessed as parasite viability after 72 hrs by Giemsa staining-based light microscopic analysis; assay type: functional, organism-based
[2] = system: Leishmania infantum; test: Antileishmanial activity against Leishmania infantum MHOM/BR/1972/LD promastigotes assessed as parasite viability up to 200 uM after 48 hrs by MTT assay; assay type: functional, organism-based
[3] = system: Trypanosoma cruzi; test: Antitrypanosomal activity against Trypanosoma cruzi Y trypomastigotes assessed as parasite viability up to 200 uM after 24 hrs by resazurin staining-based hemocytometric analysis; assay type: functional, organism-based
[4] = system: L929; test: Cytotoxicity against mouse NCTC-929 cells after 72 hrs by MTT assay; assay type: cell-based; conditions: L929, 72 h
[5] = Selectivity index, ratio of IC50 for mouse NCTC-929 cells to IC50 for Leishmania infantum MHOM/BR/1972/LD amastigotes infected in BALB/C mouse peritoneal macrophages; assay type: toxicity; conditions: read-out: Ratio IC50
[6] = system: Leishmania infantum; test: Antileishmanial activity against Leishmania infantum MHOM/BR/1972/LD amastigotes infected in BALB/c mouse peritoneal macrophages assessed as parasite viability up to 200 uM after 72 hrs by Giemsa staining-based light microscopic analysis; assay type: functional, organism-based
[7] = system: Trypanosoma cruzi; test: Antitrypanosomal activity against Trypanosoma cruzi Y trypomastigotes assessed as parasite viability after 24 hrs by resazurin staining-based hemocytometric analysis; assay type: functional, organism-based
[8] = Selectivity index, ratio of IC50 for mouse NCTC-929 cells to IC50 for Trypanosoma cruzi Y trypomastigotes; assay type: toxicity; conditions: NCTC-929 cells versus Trypanosoma cruzi Y trypomastigotes, read-out: Ratio IC50
[9] = system: Trypanosoma cruzi; test: Antitrypanosomal activity against Trypanosoma cruzi Y infected in BALB/c mouse assessed as reduction in blood parasitemia at 100 mg/kg, po administered every day starting on day 5 post infection measured on day 8 post infection; assay type: functional; design: scale not given: the % may be the effect or the level left
[10] = system: Mus musculus; test: Toxicity in BALB/c mouse infected with Trypanosoma cruzi Y assessed as mortality at 100 mg/kg/day, po administered for 10 consecutive days starting on day 5 post infection measured during compound dosing; assay type: organism-based; conditions: in vivo
[11] = system: Trypanosoma cruzi; test: Antitrypanosomal activity against Trypanosoma cruzi Y infected in BALB/c mouse assessed as reduction in blood parasitemia at 100 mg/kg/day, […] dosed administered for 10 consecutive days starting on day 5 post infection measured on day 14 post infection relative to control; assay type: functional; design: scale not given: the % may be the effect or the level left
[12] = system: Trypanosoma cruzi; test: Induction of plasma membrane permeabilization in Trypanosoma cruzi Y trypomastigotes at IC50 to IC90 measured every 1 hr up to 7 hrs by Sytox Green staining-based fluorimetric analysis; assay type: functional, organism-based
[13] = system: Trypanosoma cruzi; test: Induction of mitochondrial membrane hyperpolarization in Trypanosoma cruzi Y trypomastigotes assessed as increase in fluorescence at IC50 after 2 hrs by rhodamine123/propidium iodide staining-based flow cytometric analysis relative to control; assay type: functional
[14] = system: Trypanosoma cruzi; test: Induction of mitochondrial membrane hyperpolarization in Trypanosoma cruzi Y trypomastigotes assessed as increase in fluorescence at IC90 after 2 hrs by rhodamine123/propidium iodide staining-based flow cytometric analysis relative to control; assay type: functional
[15] = system: Trypanosoma cruzi; test: Antitrypanosomal activity against Trypanosoma cruzi Y infected in BALB/c mouse assessed as reduction in blood parasitemia at 30 mg/kg, ip administered every day starting on day 5 post infection measured on day 8 post infection; assay type: functional, organism-based
[16] = system: Trypanosoma cruzi; test: Antitrypanosomal activity against Trypanosoma cruzi Y infected in BALB/c mouse assessed as reduction in blood parasitemia at 30 mg/kg/day, ip dosed administered for 10 consecutive days starting on day 5 post infection measured on day 14 post infection relative to control; assay type: functional; design: scale not given: the % may be the effect or the level left
[17] = system: Mus musculus; test: Toxicity in BALB/c mouse infected with Trypanosoma cruzi Y assessed as mortality at 30 mg/kg/day, ip administered for 10 consecutive days starting on day 5 post infection measured during compound dosing; assay type: organism-based; conditions: in vivo
[18] = system: Mus musculus; test: Hepatotoxicity in BALB/c mouse infected with Trypanosoma cruzi Y assessed as hydropic degeneration of hepatocytes at 30 mg/kg/day, ip dosed for 10 consecutive days by hematoxylin and eosin staining-based light microscopic analysis; assay type: toxicity, organism-based; conditions: in vivo
[19] = system: Trypanosoma cruzi; test: Antitrypanosomal activity against Trypanosoma cruzi Y intracellular amastigotes infected in BALB/c mouse peritoneal macrophages at 25 uM after 48 hrs by Giemsa staining-based light microscopic analysis; assay type: functional
[20] = system: Trypanosoma cruzi; test: Induction of mitochondrial membrane hyperpolarization in Trypanosoma cruzi Y trypomastigotes after 1 hr by rhodamine123/propidium iodide staining-based flow cytometric analysis; assay type: functional, organism-based
[21] = system: Trypanosoma cruzi; test: Potency index, ratio of benznidazole IC50 to test compound IC50 for Trypanosoma cruzi Y trypomastigotes; assay type: functional
[22] = system: Leishmania infantum; test: Antileishmanial activity against Leishmania infantum MHOM/BR/1972/LD promastigotes assessed as parasite viability after 48 hrs by MTT assay; assay type: functional, organism-based

| SMILES | Activity [2] | Activity [3] | IC50 [4] | Activity [6] | IC50 [7] | selectivity ratio [8] | further results |
| --- | --- | --- | --- | --- | --- | --- | --- |
| Cc1cc(O)c(C(=O)NCCc2ccccc2)c(=O)o1 | inactive | inactive | 178 µM |  |  |  | IC50 [1]: 46.8 µM; selectivity ratio [5]: 3.8 |
| Cc1cc(O)c(C(=O)C2CCCCC2)c(=O)o1 | inactive | inactive | > 200 µM | inactive |  |  |  |
| O=C(Cn1ccnc1[N+](=O)[O-])NCc1ccccc1 [BENZNIDAZOLE] |  |  | > 200 µM |  | 16.2 µM | > 36 | Activity [9]: 100%; Activity [10]: Non-Toxic; Activity [11]: 100% |
| Cc1cc(O)c(C(=O)Nc2ccc(OCc3ccccc3)cc2)c(=O)o1 | inactive | inactive | > 200 µM | inactive |  |  |  |
| Cc1cc(O)c(CCC2CCCCC2)c(=O)o1 | inactive |  | 109 µM | inactive | 32.2 µM | 3.4 |  |
| CCCCCCc1c(O)cc(C)oc1=O | inactive | inactive | > 200 µM | inactive |  |  |  |
| CCCCCCCC(=O)c1c(O)cc(C)oc1=O | inactive |  | 140 µM | inactive | 25.7 µM | 5.4 |  |
| Cc1cc(O)c(C(=O)CCC2CCCCC2)c(=O)o1 | inactive |  | 117 µM |  | 4.4 µM | 26.8 | IC50 [1]: 39.2 µM; selectivity ratio [5]: 2.9 |
| CCCCCCCCCCCCCCc1c(O)cc(C)oc1=O | inactive |  | 24.1 µM | inactive | 4.9 µM | 4.9 |  |
| Cc1cc(O)c(C(=O)NCc2ccccc2)c(=O)o1 | inactive | inactive | > 200 µM |  |  |  | IC50 [1]: 52.8 µM; selectivity ratio [5]: 5 |
| CCCCCC(=O)c1c(O)cc(C)oc1=O | inactive | inactive | > 200 µM |  |  |  | IC50 [1]: 13.8 µM; selectivity ratio [5]: > 14.5 |
| Cc1cc(O)c(C(=S)NC2CCCCC2)c(=O)o1 | inactive |  | 177 µM | inactive | 90.5 µM | 1.9 |  |
| Cc1cc(O)c(C(=O)Nc2ccc3c(c2)OCO3)c(=O)o1 | inactive | inactive | > 200 µM | inactive |  |  |  |
| CCCCCCCCCCCCCCCCc1c(O)cc(C)oc1=O | inactive |  | 38.2 µM | inactive | 26.6 µM | 1.4 |  |
| CCCCCCCCCCCCCCNC(=O)c1c(O)cc(C)oc1=O | inactive | inactive | > 200 µM | inactive |  |  |  |
| CCCCCCCCCC(=O)c1c(O)cc(C)oc1=O | inactive |  | 134 µM | inactive | 17.5 µM | 7.6 |  |
| CCCCCCCCCCCCCCCC(=O)c1c(O)cc(C)oc1=O | inactive |  | 164 µM | inactive | 66.3 µM | 2.5 |  |
| CCCCCCCCCCCCCC(=O)c1c(O)cc(C)oc1=O | inactive |  | > 200 µM | inactive | 2.6 µM | > 77.5 | Activity [12]: inactive; Activity [13]: 25%; Activity [14]: 26%; Activity [15]: inactive; Activity [16]: 55%; Activity [17]: Non-Toxic; Activity [18]: Non-Toxic; Activity [19]: 14%; Activity [20]: Dose-dependent effect; Ratio IC50 [21]: 6 |
| CCCCCCCCCCCCc1c(O)cc(C)oc1=O |  |  | 57.2 µM | inactive | 16.1 µM | 3.5 | IC50 [22]: 138 µM |
| Cc1cc(O)c(C(=S)Nc2ccccc2)c(=O)o1 | inactive | inactive | > 200 µM |  |  |  | IC50 [1]: > 100 µM |
| Cc1cc(O)c(CC2CCCCC2)c(=O)o1 | inactive | inactive | > 200 µM | inactive |  |  |  |
| CCCCCCCCCCCCCCCCOP(=O)([O-])OCC[N+](C)(C)C [MILTEFOSINE] |  |  | 241 µM |  |  | 32.6 | IC50 [22]: 16.2 µM; IC50 [1]: 7.4 µM |
| CCCCCCCCCCc1c(O)cc(C)oc1=O |  | inactive | 56 µM | inactive |  |  | IC50 [22]: 118 µM |
| CCCCCCNC(=O)c1c(O)cc(C)oc1=O | inactive |  | 196 µM |  | 72.6 µM | 2.7 | IC50 [1]: 54 µM; selectivity ratio [5]: 3.6 |
| CCCCCCCCCCCC(=O)c1c(O)cc(C)oc1=O | inactive |  | 90.3 µM | inactive | 1.3 µM | 71.1 |  |
| Cc1cc(O)c(C(=O)Nc2ccccc2)c(=O)o1 | inactive | inactive | > 200 µM | inactive |  |  |  |
| Cc1cc(O)c(C(=O)NCCCc2ccccc2)c(=O)o1 | inactive |  | 143 µM | inactive | 81.4 µM | 1.7 |  |
| CCCCCCCNC(=O)c1c(O)cc(C)oc1=O | inactive |  | 187 µM | inactive | 78.1 µM | 2.4 |  |
| CCCCCCCCc1c(O)cc(C)oc1=O | inactive |  | 145 µM | inactive | 40 µM | 3.6 |  |
